Data published in patent publication US20230040770A1, “HETEROCYCLIC COMPOUND AND USE THEREOF” (TAKEDA PHARMACEUTICAL COMPANY LIMITED, priority 2019, published 2023).

Experiments:
[1] = Evaluation of microsome stability in human; type: in vitro ADME; settings: pH 7.4; in vitro intrinsic metabolic clearance; human liver microsomes 0.2 mg/mL, 1 μmol/L test compound, NADPH-generating system
Method: Human liver microsomes were purchased from Xenotech, LLC (Lenexa, Kans.). An incubation mixture consisted of microsomes in 50 mmol/L KH2PO4—K2HPO4 phosphate buffer (pH 7.4) and 1 μmol/L test compound. The concentration of microsomal protein was 0.2 mg/mL. An NADPH-generating system (5 mmol/L MgCl2, 5 mmol/L glucose-6-phosphate, 0.5 mmol/L beta-NADP+ and 1.5 unit/mL glucose-6-phosphate dehydrogenase) was added to the incubation mixture with a half volume of the reaction mixture to initiate the enzyme reaction. The reaction was terminated 15 and 30 minutes after the initiation of the reaction by mixing the reaction mixture with acetonitrile, followed by centrifugation at 2500 rpm for 10 min. The supernatant was subjected to LC/MS/MS analysis. The metabolic rate constant was calculated as the slope of the remaining rate-time plot. The in vitro intrinsic metabolic clearance was calculated by dividing initial metabolic rate constant by microsomal protein in the incubation mixture.

cynomolgus monkeys = experiment: Evaluation of wake-promoting effects in cynomolgus monkeys (EEG/EMG); type: in vivo, cynomolgus monkey; settings: Macaca fascicularis, po, time spent in wakefulness for 4 h after administration, read-out: Wakefulness time (% of vehicle treatment) (Mean); for response vs control in vivo at 3 mg/kg: 3 mg/kg p.o. at ZT12; for response vs control in vivo at 10 mg/kg: 10 mg/kg p.o. at ZT12
Method: The wake-promoting effects were evaluated by measuring the electroencephalogram (EEG) and electromyogram (EMG) in cynomolgus monkeys. Under isoflurane anesthesia (1-5%, Pfizer Japan Inc., Tokyo, Japan), male cynomolgus monkeys (3-5 years old, Hamri Co., Ltd., Ibaraki, Japan) were surgically implanted with radio-telemetry transmitters (TL10M3-D70-EEE, Data Sciences International Inc., MN, USA). EEG electrodes were screwed into the skull at the parietal area. EMG electrodes were implanted on the cervical muscles. After the surgery, each monkey was given penicillin (100,000 units/head, i.m., Meiji Seika Pharma Co., Ltd., Tokyo, Japan), buprenorphine (0.02 mg/kg, i.m., Otsuka Pharmaceutical Co., Ltd., Tokyo, Japan) and prednisolone (1 mg/kg, s.c., Kyoritsu Seiyaku Co., Ltd., Tokyo, Japan) daily for one week. After at least a 1-month recovery period in home cages, the monkeys were habituated to the recording chamber placed in a soundproof room. EEG and EMG signals were recorded using the telemetry system (Dataquest ART software, Data Sciences International Inc., MN, USA) and the signals were analyzed using SleepSign software (Kissei Comtec Co., Ltd., Nagano, Japan). After confirming long sleep in dark phase in the experimental room, we used animals to examine the wake-promoting effect of compounds.
Oral test compounds (3 or 10 mg/kg) suspended in 0.5% methylcellulose aqueous solution, or vehicle (i.e., 0.5% methylcellulose aqueous solution) was administered orally (p.o.) to monkeys at zeitgeber time 12 (ZT12) in a volume of 5 mL/kg body weight in cross-over design or pre-post design (n=1-4). EEG and EMG recordings were performed for 4 h after the compound administration. The time spent in wakefulness for 4 h after administration (% of vehicle treatment) was calculated by using SleepSign.
Parenteral test compounds (0.1 or 0.3 mg/kg) dissolved in a mixed solution comprising 5% DMSO, 5% Cremophor EL, 20% PEG400 and 70% soluplus (1% (w/v)), or vehicle (i.e., a mixed solution comprising 5% DMSO, 5% Cremophor EL, 20% PEG400 and 70% soluplus (1% (w/v))) was administered subcutaneously (s.c.) to monkeys at ZT12 in a volume of 0.5 mL/kg body weight in a pre-post design (n=1-2). EEG and EMG recordings were performed for 4 h after the compound administration. The time spent in wakefulness for 4 h after administration (% of vehicle treatment) was calculated by using SleepSign.

[2] = target: T1, human orexin type 2 receptor (Homo sapiens, UniProt O43614); experiment: Measurement of orexin type 2 receptor agonist activity (calcium indicator fluorescence, CHO cells forcibly expressing human OX2 receptor); type: cell-based; settings: compound at 3 μM; 0% = DMSO, 100% = orexin A (human) 10 nM
T1 construct: expressed in transfected cells
T1 sequence (O43614 1-444): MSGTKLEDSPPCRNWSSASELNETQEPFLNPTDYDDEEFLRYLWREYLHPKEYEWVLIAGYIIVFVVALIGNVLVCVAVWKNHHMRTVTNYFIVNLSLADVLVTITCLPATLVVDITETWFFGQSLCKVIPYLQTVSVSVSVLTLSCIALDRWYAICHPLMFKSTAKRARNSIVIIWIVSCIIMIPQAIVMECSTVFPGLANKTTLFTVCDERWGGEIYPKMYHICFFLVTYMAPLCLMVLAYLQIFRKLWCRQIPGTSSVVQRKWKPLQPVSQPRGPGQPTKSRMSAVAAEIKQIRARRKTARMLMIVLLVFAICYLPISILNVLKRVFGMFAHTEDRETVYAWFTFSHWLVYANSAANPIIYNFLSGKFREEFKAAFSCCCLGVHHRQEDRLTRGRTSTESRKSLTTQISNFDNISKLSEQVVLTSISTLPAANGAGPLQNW
How it was run: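 Agonist response normalised between vehicle (0%) and orexin A at 10 nM final (100%), from kinetic Fluo-4 calcium signals recorded for about 2 min after compound addition. Cells: stable human OX2R CHO clone, dye-loaded 30 min at 37 °C plus 30 min at room temperature.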

microsomal CLint at 1 μmol/L [1] [µL/min/mg] | OX2R agonist activity (3 μM, %) [2] [%] | SMILES | response vs control in vivo at 3 mg/kg (cynomolgus monkeys) [%] | response vs control in vivo at 10 mg/kg (cynomolgus monkeys) [%]
135 | 95 | CCS(=O)(=O)N[C@@H]1[C@H](Cc2cccc(-c3cc(F)cc(F)c3)c2F)N(C(=O)[C@H]2CCO2)CC1(F)F [Example 56, N-{(2S,3R)-4,4-difluoro-1-((2R)-oxetane-2-carbonyl)-2-[(2,3′,5′-trifluoro[1,1′-biphenyl]-3-yl)methyl]pyrrolidin-3-yl}ethanesulfonamide] | 417 | –
3 | 85 | CCS(=O)(=O)N[C@H]1[C@@H](F)CN(C(=O)[C@H]2CCO2)[C@H]1Cc1cccc(-c2ccccc2)c1F [Example 302, N-[(2S,3R,4S)-4-fluoro-2-[(2-fluoro[1,1′-biphenyl]-3-yl)methyl]-1-((2R)-oxetane-2-carbonyl)pyrrolidin-3-yl]ethanesulfonamide] | – | 288
65 | 94 | CS(=O)(=O)N[C@@H]1[C@H](Cc2cccc(-c3cc(F)cc(F)c3)c2F)N(C(=O)[C@H]2CCO2)CC1(F)F [Example 91, N-{(2S,3R)-4,4-difluoro-1-((2R)-oxetane-2-carbonyl)-2-[(2,3′,5′-trifluoro[1,1′-biphenyl]-3-yl)methyl]pyrrolidin-3-yl}methanesulfonamide] | – | 548
67 | 100 | CCS(=O)(=O)N[C@H]1[C@@H](F)CN(C(=O)C2CC2)[C@H]1Cc1cccc(-c2cc(F)cc(F)c2)c1F [Example 236, N-{(2S,3R,4S)-1-(cyclopropanecarbonyl)-4-fluoro-2-[(2,3′,5′-trifluoro[1,1′-biphenyl]-3-yl)methyl]pyrrolidin-3-yl}ethanesulfonamide] | – | 716
35 | 91 | CCS(=O)(=O)N[C@@H]1[C@H](Cc2cccc(-c3cc(F)cc(F)c3)c2F)N(C(=O)[C@H]2C[C@H](F)C2)CC1(F)F [Example 375, N-{(2S,3R)-4,4-difluoro-1-((1r,3S)-3-fluorocyclobutane-1-carbonyl)-2-[(2,3′,5′-trifluoro[1,1′-biphenyl]-3-yl)methyl]pyrrolidin-3-yl}ethanesulfonamide] | 396 | –
61 | 104 | CCS(=O)(=O)N[C@@H]1[C@H](Cc2cccc(-c3cccc(F)c3F)c2F)N(C(=O)C(C)(C)O)CC1(F)F [Example 66, N-{(2S,3R)-4,4-difluoro-1-(2-hydroxy-2-methylpropanoyl)-2-[(2,2′,3′-trifluoro[1,1′-biphenyl]-3-yl)methyl]pyrrolidin-3-yl}ethanesulfonamide] | 463 | –
4 | 111 | CCS(=O)(=O)N[C@@H]1[C@H](Cc2cccc(-c3cc(F)ccc3F)c2F)N(C(=O)C(C)(C)O)CC1(F)F [Example 67, N-{(2S,3R)-4,4-difluoro-1-(2-hydroxy-2-methylpropanoyl)-2-[(2,2′,5′-trifluoro[1,1′-biphenyl]-3-yl)methyl]pyrrolidin-3-yl}ethanesulfonamide] | 356 | –
75 | 100 | CCS(=O)(=O)N[C@@H]1[C@H](Cc2cccc(-c3cccc(F)c3)c2F)N(C(=O)[C@H]2CCO2)CC1(F)F [Example 1, N-[(2S,3R)-2-[(2,3′-difluoro[1,1′-biphenyl]-3-yl)methyl]-4,4-difluoro-1-((2R)-oxetane-2-carbonyl)pyrrolidin-3-yl]ethanesulfonamide] | 234 | –
44 | 99 | CCS(=O)(=O)N[C@@H]1[C@H](Cc2cccc(-c3cccc(F)c3)c2F)N(C(=O)C(C)C)CC1(F)F [Example 94, N-[(2S,3R)-2-[(2,3′-difluoro[1,1′-biphenyl]-3-yl)methyl]-4,4-difluoro-1-(2-methylpropanoyl)pyrrolidin-3-yl]ethanesulfonamide] | 442 | –
9 | 93 | CS(=O)(=O)N[C@@H]1[C@H](Cc2cccc(-c3cc(F)cc(F)c3)c2F)N(C(=O)C23CC(C2)C3)CC1(F)F [Example 87, N-{(2S,3R)-1-(bicyclo[1.1.1]pentane-1-carbonyl)-4,4-difluoro-2-[(2,3′,5′-trifluoro[1,1′-biphenyl]-3-yl)methyl]pyrrolidin-3-yl}methanesulfonamide] | 832 | –
40 | 106 | CC(C)(O)C(=O)N1CC(F)(F)[C@H](NS(C)(=O)=O)[C@@H]1Cc1cccc(-c2cc(F)cc(F)c2)c1F [Example 2, N-{(2S,3R)-4,4-difluoro-1-(2-hydroxy-2-methylpropanoyl)-2-[(2,3′,5′-trifluoro[1,1′-biphenyl]-3-yl)methyl]pyrrolidin-3-yl}methanesulfonamide] | 600 | –
